The structures appear in SMILES notation.

The assay deals with T1, cGAMP binding domain of wild-type (GRR) human STING, residues 155-341 (Homo sapiens, UniProt Q86WV6, H232R).
T1 construct: His-TEV-hSTING (WT); TEV protease cleavage site (N); made in house; host or cells: E. coli BL21 DE3
T1 sequence (Q86WV6 with tags, fused parts or gaps H232R): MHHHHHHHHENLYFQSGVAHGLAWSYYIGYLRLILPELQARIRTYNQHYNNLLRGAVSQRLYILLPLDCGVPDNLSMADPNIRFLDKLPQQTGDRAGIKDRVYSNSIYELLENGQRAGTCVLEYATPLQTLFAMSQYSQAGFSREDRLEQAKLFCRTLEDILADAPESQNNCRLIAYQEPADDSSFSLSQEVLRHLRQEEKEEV
In words: Increase of stability of STING protein against thermal denaturation, Differential Scanning Fluorimetry (DSF). The essentials: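 3 µM His-tagged protein with 100 uM compound, 5×SYPRO Orange, 2% DMSO in 20 mM Tris, 150 mM NaCl, pH7.5; 15–95 °C ramp in 0.5 °C steps (15 s/cycle). Tm from Boltzmann fit of the dye melt curve, duplicates averaged, repeated if SD>1.5 °C; ΔTm = Tm with compound minus Tm of protein alone.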
As for `Cn1cc2cc(-c3nc(-c4cccc5nn(C[C@H](O)c6ccc(OCCC(C)(C)O)cc6)cc45)c(C4CC4)n3C)c(C3CC3)nc2n1` [Example 41, 4-{4-[(1R)-2-[4-(5-cyclopropyl-2-{6-cyclopropyl-2-methyl-2H-pyrazolo[3,4-b]pyridin-5-yl}-1-methyl-1H-imidazol-4-yl)-2H-indazol-2-yl]-1-hydroxyethyl]phenoxy}-2-methylbutan-2-ol], the DSF was 30 K.

On to `Cn1cc2cc(-c3nc(-c4cccc5nn(C[C@H](O)c6ccc(OC7COC7)cc6)cc45)c(C4CC4)n3C)c(C3CC3)nc2n1` [Example 69, (1R)-2-[4-(5-cyclopropyl-2-{6-cyclopropyl-2-methyl-2H-pyrazolo[3,4-b]pyridin-5-yl}-1-methyl-1H-imidazol-4-yl)-2H-indazol-2-yl]-1-[4-(oxetan-3-yloxy)phenyl]ethan-1-ol], for which the DSF is 29 K.

In the case of `CCCn1cc2cc(-c3nc(-c4cccc5nn(CC(F)(F)c6ccccc6)cc45)c(C4CC4)n3C)c(C3CC3)nc2n1` [Example 48, 4-(5-cyclopropyl-2-{6-cyclopropyl-2-propyl-2H-pyrazolo[3,4-b]pyridin-5-yl}-1-methyl-1H-imidazol-4-yl)-2-(2,2-difluoro-2-phenylethyl)-2H-indazole], the DSF turned out to be 31 K.

Compound `Cc1nc2nn(CCCN3CCOCC3)cc2cc1-n1nc(-c2cccc3nn(C[C@H](F)c4ccccc4)cc23)c(C(C)C)c1C` [Example 49, 2-[(2R)-2-fluoro-2-phenylethyl]-4-(5-methyl-1-{6-methyl-2-[3-(morpholin-4-yl)propyl]-2H-pyrazolo[3,4-b]pyridin-5-yl}-4-(propan-2-yl)-1H-pyrazol-3-yl)-2H-indazole] yielded a DSF of 26 K.

As to `Cc1nc2nn(C)cc2cc1-n1nc(-c2cccc3nn(C[C@H](O)c4ccccc4)cc23)c(C(C)C)c1C` [Example 102, (1R)-2-[4-(1-{2,6-Dimethyl-2H-pyrazolo[3,4-b]pyridin-5-yl}-5-methyl-4-(propan-2-yl)-1H-pyrazol-3-yl)-2H-indazol-2-yl]-1-phenylethan-1-ol], the DSF was 28 K.

`Cc1nc2nn(CC3CC3)cc2cc1-n1nc(-c2cccc3nn(C[C@H](O)c4ccccc4)cc23)c(C(C)C)c1C` [Example 56, (1R)-2-(4-{1-[2-(cyclopropylmethyl)-6-methyl-2H-pyrazolo[3,4-b]pyridin-5-yl]-5-methyl-4-(propan-2-yl)-1H-pyrazol-3-yl}-2H-indazol-2-yl)-1-phenylethan-1-ol]: the DSF was 25 K.

For `Cc1nc2nn(C)cc2cc1-n1nc(-c2cccc3nn(C[C@H](O)c4ccc(F)cc4)cc23)c(C(C)C)c1C` [Example 46, (1R)-2-[4-(1-{2,6-dimethyl-2H-pyrazolo[3,4-b]pyridin-5-yl}-5-methyl-4-(propan-2-yl)-1H-pyrazol-3-yl)-2H-indazol-2-yl]-1-(4-fluorophenyl)ethan-1-ol], the DSF came out at 27 K.

`Cc1nc2nn(C)cc2cc1-n1nc(-c2cccc3nn(CCc4ccc(OCCN(C)C)cc4)cc23)c(C(C)C)c1C` [Example 65, [2-(4-{2-[4-(1-{2,6-dimethyl-2H-pyrazolo[3,4-b]pyridin-5-yl}-5-methyl-4-(propan-2-yl)-1H-pyrazol-3-yl)-2H-indazol-2-yl]ethyl}phenoxy)ethyl]dimethylamine] registered a DSF of 26 K.
